Structures can show the parent of a compound that is named as a salt. ± gives the standard deviation of the averaged measurements.
What was measured:
[1] = tested on: 409B2 hiPSC (iCRISPR Cas9, FRMD7 editing); test: MMEJ-attributed deletion frequency relative to solvent control (fold (ratio to mock)); higher = more MMEJ outcomes
Experimental: (§1)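 Subset screen of 55 drugs tested at 5 concentrations around the effective screening dose, in 409B2 iCRISPR Cas9 hiPSCs editing FRMD7 with a ssDNA donor. Drugs were applied for 24 h. Viability was read by resazurin and editing outcomes by amplicon sequencing (HDR, NHEJ <2 bp microhomology, MMEJ ≥2 bp microhomology). Values are relative to solvent mock controls; two biological replicates.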

[2] = tested on: 409B2 hiPSC (iCRISPR Cas9, FRMD7 editing); test: cell survival relative to solvent control (fold (ratio to mock)); higher = more surviving cells
Experimental: as §1

[3] = tested on: 409B2 hiPSC (iCRISPR Cas9, FRMD7 editing); test: HDR (precise edit) frequency relative to solvent control (fold (ratio to mock)); higher = more homology-directed repair outcomes
Experimental: as §1

[4] = tested on: 409B2 hiPSC (iCRISPR Cas9, FRMD7 editing); test: NHEJ-attributed indel frequency relative to solvent control (fold (ratio to mock)); higher = more NHEJ outcomes
Experimental: as §1

`N=C(NCCCCCCNC(=N)NC(=N)Nc1ccc(Cl)cc1)NC(=N)Nc1ccc(Cl)cc1` [Chlorhexidine HCl] (in DMSO) gave an MMEJ-attributed deletion frequency ([1]; 200 nM) of 0.966 ± 0.067, an MMEJ-attributed deletion frequency ([1]; 500 nM) of 0.8989 ± 0.0017 and an MMEJ-attributed deletion frequency ([1]; 1000 nM) of 0.994 ± 0.067. It also gave an MMEJ-attributed deletion frequency ([1]; 2000 nM) of 1.07 ± 0.082, an MMEJ-attributed deletion frequency ([1]; 5000 nM) of 0.946 ± 0.12 and a cell survival ([2]; 200 nM) of 1.04. It also gave a cell survival ([2]; 500 nM) of 1.24, a cell survival ([2]; 1000 nM) of 1.02 and a cell survival ([2]; 2000 nM) of 1.03. The cell survival ([2]; 5000 nM) was 0.0831, the HDR ([3]; 200 nM) was 1.06 ± 0.051 and the HDR ([3]; 500 nM) was 1.09 ± 0.038. It also gave an HDR ([3]; 1000 nM) of 1 ± 0.044, an HDR ([3]; 2000 nM) of 0.874 ± 0.023 and an HDR ([3]; 5000 nM) of 0.294 ± 0.063. For the same molecule, the NHEJ-attributed indel frequency ([4]; 200 nM) was 0.973 ± 0.014, the NHEJ-attributed indel frequency ([4]; 500 nM) was 0.995 ± 0.021 and the NHEJ-attributed indel frequency ([4]; 1000 nM) was 0.997 ± 0.011. It also gave an NHEJ-attributed indel frequency ([4]; 2000 nM) of 1.05 ± 0.043 and an NHEJ-attributed indel frequency ([4]; 5000 nM) of 0.6546 ± 0.0051.
`CC[N+](CC)(CC)CC` [Tetraethylammonium chloride] (in EtOH) was tested, and the MMEJ-attributed deletion frequency ([1]; 0.2 nM) was 1.05 ± 0.022, the MMEJ-attributed deletion frequency ([1]; 0.5 nM) was 1.03 ± 0.11 and the MMEJ-attributed deletion frequency ([1]; 1 nM) was 0.964 ± 0.1. It also gave an MMEJ-attributed deletion frequency ([1]; 2 nM) of 1.053 ± 0.0031, an MMEJ-attributed deletion frequency ([1]; 5 nM) of 0.9894 ± 0.0011 and a cell survival ([2]; 0.2 nM) of 0.933. The cell survival ([2]; 0.5 nM) was 1.09, the cell survival ([2]; 1 nM) was 0.954 and the cell survival ([2]; 2 nM) was 0.979. The cell survival ([2]; 5 nM) was 1.03, the HDR ([3]; 0.2 nM) was 1.11 ± 0.15 and the HDR ([3]; 0.5 nM) was 1.09 ± 0.19. For the same molecule, the HDR ([3]; 1 nM) was 1.02 ± 0.019, the HDR ([3]; 2 nM) was 0.961 ± 0.11 and the HDR ([3]; 5 nM) was 0.922 ± 0.038. For the same molecule, the NHEJ-attributed indel frequency ([4]; 0.2 nM) was 0.99 ± 0.026, the NHEJ-attributed indel frequency ([4]; 0.5 nM) was 0.996 ± 0.018 and the NHEJ-attributed indel frequency ([4]; 1 nM) was 0.99607 ± 0.00072. The NHEJ-attributed indel frequency ([4]; 2 nM) was 1.007 ± 0.01 and the NHEJ-attributed indel frequency ([4]; 5 nM) was 0.9965 ± 0.0079.
Work on `CN(C)C(=O)Oc1cccc([N+](C)(C)C)c1` [Hodostin] (in DMSO) yielded an MMEJ-attributed deletion frequency ([1]; 2000 nM) of 0.943 ± 0.1, an MMEJ-attributed deletion frequency ([1]; 5000 nM) of 0.965 ± 0.13 and an MMEJ-attributed deletion frequency ([1]; 10000 nM) of 0.922 ± 0.014. The MMEJ-attributed deletion frequency ([1]; 20000 nM) was 0.944 ± 0.085, the MMEJ-attributed deletion frequency ([1]; 50000 nM) was 1.05 ± 0.12 and the cell survival ([2]; 2000 nM) was 0.969. For the same molecule, the cell survival ([2]; 5000 nM) was 1.28, the cell survival ([2]; 10000 nM) was 1 and the cell survival ([2]; 20000 nM) was 1.14. For the same molecule, the cell survival ([2]; 50000 nM) was 1.29, the HDR ([3]; 2000 nM) was 1.13 ± 0.068 and the HDR ([3]; 5000 nM) was 1.1 ± 0.087. For the same molecule, the HDR ([3]; 10000 nM) was 1.05 ± 0.15, the HDR ([3]; 20000 nM) was 1.15 ± 0.044 and the HDR ([3]; 50000 nM) was 1.24 ± 0.054. It also gave an NHEJ-attributed indel frequency ([4]; 2000 nM) of 0.983 ± 0.013, an NHEJ-attributed indel frequency ([4]; 5000 nM) of 0.992 ± 0.024 and an NHEJ-attributed indel frequency ([4]; 10000 nM) of 0.996 ± 0.04. The NHEJ-attributed indel frequency ([4]; 20000 nM) was 0.9928 ± 0.0066 and the NHEJ-attributed indel frequency ([4]; 50000 nM) was 0.992 ± 0.029.
With `NS(=O)(=O)c1ccccc1` [Benzenesulfonamide] (in DMSO) the MMEJ-attributed deletion frequency ([1]; 20 nM) was 0.855 ± 0.14, the MMEJ-attributed deletion frequency ([1]; 50 nM) was 0.92339 ± 0.00028 and the MMEJ-attributed deletion frequency ([1]; 100 nM) was 1.05 ± 0.23. For the same molecule, the MMEJ-attributed deletion frequency ([1]; 200 nM) was 0.912 ± 0.08, the MMEJ-attributed deletion frequency ([1]; 500 nM) was 0.962 ± 0.038 and the cell survival ([2]; 20 nM) was 0.86. It also gave a cell survival ([2]; 50 nM) of 1.22, a cell survival ([2]; 100 nM) of 1.05 and a cell survival ([2]; 200 nM) of 1.13. For the same molecule, the cell survival ([2]; 500 nM) was 1.17, the HDR ([3]; 20 nM) was 1.14 ± 0.063 and the HDR ([3]; 50 nM) was 1.08 ± 0.053. The HDR ([3]; 100 nM) was 1.02 ± 0.038, the HDR ([3]; 200 nM) was 1.1 ± 0.048 and the HDR ([3]; 500 nM) was 1.06 ± 0.046. The NHEJ-attributed indel frequency ([4]; 20 nM) was 0.951 ± 0.029, the NHEJ-attributed indel frequency ([4]; 50 nM) was 0.974 ± 0.026 and the NHEJ-attributed indel frequency ([4]; 100 nM) was 0.969 ± 0.028. For the same molecule, the NHEJ-attributed indel frequency ([4]; 200 nM) was 0.995 ± 0.03 and the NHEJ-attributed indel frequency ([4]; 500 nM) was 0.989 ± 0.029.
With `NC(=O)CC[C@@H](N)C(=O)O` [D-Glutamine] (in H2O) the MMEJ-attributed deletion frequency ([1]; 20 nM) was 0.971 ± 0.055, the MMEJ-attributed deletion frequency ([1]; 50 nM) was 0.874 ± 0.034 and the MMEJ-attributed deletion frequency ([1]; 100 nM) was 0.887 ± 0.17. It also gave an MMEJ-attributed deletion frequency ([1]; 200 nM) of 0.933 ± 0.064, an MMEJ-attributed deletion frequency ([1]; 500 nM) of 0.918 ± 0.092 and a cell survival ([2]; 20 nM) of 0.958. For the same molecule, the cell survival ([2]; 50 nM) was 1.03, the cell survival ([2]; 100 nM) was 0.932 and the cell survival ([2]; 200 nM) was 1.16. It also gave a cell survival ([2]; 500 nM) of 0.888, an HDR ([3]; 20 nM) of 0.953 ± 0.047 and an HDR ([3]; 50 nM) of 0.985 ± 0.033. The HDR ([3]; 100 nM) was 0.9265 ± 0.0046, the HDR ([3]; 200 nM) was 0.985 ± 0.031 and the HDR ([3]; 500 nM) was 0.965 ± 0.055. It also gave an NHEJ-attributed indel frequency ([4]; 20 nM) of 1.02 ± 0.029, an NHEJ-attributed indel frequency ([4]; 50 nM) of 1.03 ± 0.016 and an NHEJ-attributed indel frequency ([4]; 100 nM) of 1.02 ± 0.028. The NHEJ-attributed indel frequency ([4]; 200 nM) was 1.03 ± 0.025 and the NHEJ-attributed indel frequency ([4]; 500 nM) was 1.01 ± 0.024.
With `Nc1c(CC(=O)O)cccc1C(=O)c1ccc(Br)cc1` [Bromfenac Sodium] (in DMSO) the MMEJ-attributed deletion frequency ([1]; 200 nM) was 0.866 ± 0.12, the MMEJ-attributed deletion frequency ([1]; 500 nM) was 0.944 ± 0.072 and the MMEJ-attributed deletion frequency ([1]; 1000 nM) was 0.811 ± 0.094. For the same molecule, the MMEJ-attributed deletion frequency ([1]; 2000 nM) was 0.89 ± 0.033, the MMEJ-attributed deletion frequency ([1]; 5000 nM) was 0.976 ± 0.09 and the cell survival ([2]; 200 nM) was 1.06. It also gave a cell survival ([2]; 500 nM) of 1.2, a cell survival ([2]; 1000 nM) of 0.983 and a cell survival ([2]; 2000 nM) of 1.04. For the same molecule, the cell survival ([2]; 5000 nM) was 1.09, the HDR ([3]; 200 nM) was 1.09 ± 0.065 and the HDR ([3]; 500 nM) was 1.09 ± 0.07. The HDR ([3]; 1000 nM) was 1.11 ± 0.058, the HDR ([3]; 2000 nM) was 1.05 ± 0.025 and the HDR ([3]; 5000 nM) was 1.11 ± 0.053. The NHEJ-attributed indel frequency ([4]; 200 nM) was 0.984 ± 0.026, the NHEJ-attributed indel frequency ([4]; 500 nM) was 0.957 ± 0.032 and the NHEJ-attributed indel frequency ([4]; 1000 nM) was 0.984 ± 0.016. It also gave an NHEJ-attributed indel frequency ([4]; 2000 nM) of 1.02 ± 0.022 and an NHEJ-attributed indel frequency ([4]; 5000 nM) of 0.975 ± 0.044.

Source: the supplement of paper PMC12698765
